# Source: patent US20090016956A1, “Labeled Macrophages and Methods of Use Thereof” (priority 2007, published 2009)
# Test system: reverse cholesterol transport pathway (RCTP)
# Test: modulation of the reverse cholesterol transport pathway (RCTP); modified in vivo assay (MIVA), release of labeled cholesterol from loaded cells
# Settings: general statement in the description; the data are only in FIGS. 1-8, values not given
# Procedure: In another embodiment, the invention includes a method of loading of cells, (e.g., macrophages in culture) with labeled cholesterol, e.g., radiolabeled cholesterol, by exposing the cells to autologous red cell membrane fragments which have been equilibrated with labeled cholesterol. The exposed cells phagocytose the red cell membrane fragments and internalize and store the labeled cholesterol becoming, in effect, foam cells. These ‘loaded’ cells are then administered, e.g., intraveneously injected, into a subject and allowed to distribute throughout the subject and settle within its organs (e.g., heart, lung, kidney, liver). A base level of cholesterol release is observed. After an appropriate length of time, the subject is treated with the test agent, or compound of interest and the release of label (e.g., labeled cholesterol) is measured and/or monitored as a function of time, dose, or dosing regimen. The appropriate length of time may be approximately twenty four hours, although it may also be longer or shorter, if so desired.
# Stimulation of cholesterol release from the introduced loaded cells results in a transient increase in the amount of circulating label over baseline. Measurement of the kinetics of label release is carried out by direct analysis of samples of circulating whole blood, plasma, serum, feces, urine, saliva and/or cerebral spinal fluid. […]
compound,measurement,value
CCCCCCCCCC[Si](C)(C)CCC(=O)NC(Cc1ccc(C)cc1)c1ccccc1 (stereo not shown) [Sandoz 58-035],effectiveness in modulation of the RCTP,effective in modulation of the RCTP
